Measurements from ChEMBL document CHEMBL3526141, “Characterization of human liver enzymes involved in the biotransformation of boceprevir, a hepatitis C virus protease inhibitor” (Drug Metab Dispos, 2011).

Legend:
Cytochrome P450 2C19 = Cytochrome P450 2C19 (Homo sapiens, UniProt P33261); assay: Drug metabolism assessed as human CYP2C19-mediated compound formation from 5 uM [14C]boceprevir after 120 mins by LC-MS/FSA method relative to total [14C]boceprevir; type: ADME; settings: recombinant enzyme, 2 h
Cytochrome P450 2C19, sequence (P33261 whole entry): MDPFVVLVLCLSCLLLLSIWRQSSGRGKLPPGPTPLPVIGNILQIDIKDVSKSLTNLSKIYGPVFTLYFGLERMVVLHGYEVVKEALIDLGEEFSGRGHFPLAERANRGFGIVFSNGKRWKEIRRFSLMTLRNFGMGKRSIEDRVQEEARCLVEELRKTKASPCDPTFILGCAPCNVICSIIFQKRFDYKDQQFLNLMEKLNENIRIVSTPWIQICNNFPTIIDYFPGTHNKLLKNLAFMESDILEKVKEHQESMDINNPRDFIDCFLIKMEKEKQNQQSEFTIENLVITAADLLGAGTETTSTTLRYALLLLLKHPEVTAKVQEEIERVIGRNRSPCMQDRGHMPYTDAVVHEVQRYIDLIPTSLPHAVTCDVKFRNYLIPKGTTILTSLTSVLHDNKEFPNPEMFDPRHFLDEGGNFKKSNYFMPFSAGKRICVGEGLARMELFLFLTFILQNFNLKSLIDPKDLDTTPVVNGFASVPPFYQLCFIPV

Plasma = assay: Drug metabolism in human plasma treated with [14C]boceprevir assessed as ratio of drug level by LC-MS/MS method relative to boceprevir; type: ADME, cell-free
Liver cytosol [1] = assay: Drug metabolism in human liver cytosol at 20 uM assessed as (1R,2S,5S)-N-((2S,3R)-4-amino-1-cyclobutyl-3-hydroxy-4-oxobutan-2-yl)-3-((S)-2-(3-tert-butylureido)-3,3-dimethylbutanoyl)-6,6-dimethyl-3-azabicyclo[3.1.0]hexane-2-carboxamide formation in presence of BNPP by LC-MS/MS/FSA method; type: ADME
Cytochrome P450 2D6 = Cytochrome P450 2D6 (Homo sapiens, UniProt P10635); assay: Drug metabolism assessed as human CYP2D6-mediated compound formation from 5 uM [14C]boceprevir after 120 mins by LC-MS/FSA method relative to total [14C]boceprevir; type: ADME; settings: recombinant enzyme, 2 h
Cytochrome P450 2D6, sequence (P10635 whole entry): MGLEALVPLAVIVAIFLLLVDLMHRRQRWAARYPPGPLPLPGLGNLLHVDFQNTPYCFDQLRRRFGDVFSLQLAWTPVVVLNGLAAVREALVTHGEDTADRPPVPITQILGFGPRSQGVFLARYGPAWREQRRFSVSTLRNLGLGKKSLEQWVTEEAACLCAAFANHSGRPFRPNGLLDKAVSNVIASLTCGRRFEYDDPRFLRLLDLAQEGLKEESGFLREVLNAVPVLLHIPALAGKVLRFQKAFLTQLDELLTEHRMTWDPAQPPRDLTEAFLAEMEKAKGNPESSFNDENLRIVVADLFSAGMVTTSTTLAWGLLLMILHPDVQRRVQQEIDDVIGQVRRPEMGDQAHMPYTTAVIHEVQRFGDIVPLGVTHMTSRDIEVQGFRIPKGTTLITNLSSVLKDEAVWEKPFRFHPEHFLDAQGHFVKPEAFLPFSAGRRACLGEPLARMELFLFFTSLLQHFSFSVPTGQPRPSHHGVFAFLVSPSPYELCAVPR

Cytochrome P450 2B6 = target: T1, Cytochrome P450 2B6 (Homo sapiens, UniProt P20813); assay: Drug metabolism assessed as human CYP2B6-mediated compound formation from 5 uM [14C]boceprevir after 120 mins by LC-MS/FSA method relative to total [14C]boceprevir; type: ADME; settings: recombinant enzyme, 2 h
T1 sequence (P20813 whole entry): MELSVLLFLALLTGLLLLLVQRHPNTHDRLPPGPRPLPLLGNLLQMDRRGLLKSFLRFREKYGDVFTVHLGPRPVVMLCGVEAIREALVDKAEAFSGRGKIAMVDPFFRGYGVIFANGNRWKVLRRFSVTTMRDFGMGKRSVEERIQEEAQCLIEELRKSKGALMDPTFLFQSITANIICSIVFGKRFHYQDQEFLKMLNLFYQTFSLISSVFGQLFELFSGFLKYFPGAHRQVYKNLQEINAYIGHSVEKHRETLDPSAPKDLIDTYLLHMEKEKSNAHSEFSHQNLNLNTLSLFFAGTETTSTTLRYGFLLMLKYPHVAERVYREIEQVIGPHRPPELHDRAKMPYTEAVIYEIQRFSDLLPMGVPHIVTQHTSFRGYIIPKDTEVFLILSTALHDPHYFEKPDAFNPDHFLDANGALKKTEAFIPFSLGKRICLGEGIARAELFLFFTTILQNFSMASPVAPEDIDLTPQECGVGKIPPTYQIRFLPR

Cytochrome P450 1A1 = target: T2, Cytochrome P450 1A1 (Homo sapiens, UniProt P04798); assay: (§1) Drug metabolism assessed as human […]-mediated compound formation from 5 uM [14C]boceprevir after 120 mins by LC-MS/FSA method relative to total [14C]boceprevir; type: ADME; settings: recombinant enzyme, 2 h
T2 sequence (P04798 whole entry): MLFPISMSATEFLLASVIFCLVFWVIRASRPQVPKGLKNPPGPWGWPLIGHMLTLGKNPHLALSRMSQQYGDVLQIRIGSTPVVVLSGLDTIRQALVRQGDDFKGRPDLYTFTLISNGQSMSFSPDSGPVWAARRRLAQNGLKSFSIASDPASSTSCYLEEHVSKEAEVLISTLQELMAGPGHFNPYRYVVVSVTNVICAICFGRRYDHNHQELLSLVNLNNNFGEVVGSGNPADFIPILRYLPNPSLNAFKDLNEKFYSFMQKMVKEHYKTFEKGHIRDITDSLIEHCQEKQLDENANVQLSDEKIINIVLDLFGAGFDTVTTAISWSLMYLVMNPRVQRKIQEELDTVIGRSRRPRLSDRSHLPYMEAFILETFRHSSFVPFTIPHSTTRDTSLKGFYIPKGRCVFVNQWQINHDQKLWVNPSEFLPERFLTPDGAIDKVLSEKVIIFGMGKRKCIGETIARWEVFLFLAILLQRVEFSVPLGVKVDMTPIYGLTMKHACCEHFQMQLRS

Cytochrome P450 1A2 = target: T3, Cytochrome P450 1A2 (Homo sapiens, UniProt P05177); assay: as §1; type: ADME; settings: recombinant enzyme, 2 h
T3 sequence (P05177 whole entry): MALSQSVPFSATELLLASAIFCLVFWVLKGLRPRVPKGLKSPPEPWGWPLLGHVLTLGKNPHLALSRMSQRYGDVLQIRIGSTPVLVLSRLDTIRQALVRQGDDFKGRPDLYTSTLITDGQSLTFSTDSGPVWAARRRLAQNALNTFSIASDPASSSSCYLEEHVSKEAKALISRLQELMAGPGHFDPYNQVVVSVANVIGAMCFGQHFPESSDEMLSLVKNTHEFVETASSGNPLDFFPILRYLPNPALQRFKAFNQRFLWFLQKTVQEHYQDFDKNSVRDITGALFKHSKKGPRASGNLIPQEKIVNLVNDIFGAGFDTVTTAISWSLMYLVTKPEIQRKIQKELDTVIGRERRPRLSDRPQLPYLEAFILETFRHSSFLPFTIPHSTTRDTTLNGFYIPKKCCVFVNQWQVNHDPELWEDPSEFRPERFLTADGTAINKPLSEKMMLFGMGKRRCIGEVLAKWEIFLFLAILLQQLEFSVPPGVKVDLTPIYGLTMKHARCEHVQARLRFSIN

Liver cytosol [2] = assay: Drug metabolism in human liver cytosol at 20 uM assessed as (1R,2S,5S)-N-((2R,3R)-4-amino-1-cyclobutyl-3-hydroxy-4-oxobutan-2-yl)-3-((S)-2-(3-tert-butylureido)-3,3-dimethylbutanoyl)-6,6-dimethyl-3-azabicyclo[3.1.0]hexane-2-carboxamide formation in presence of BNPP by LC-MS/MS/FSA method; type: ADME
Cytochrome P450 3A4 = Cytochrome P450 3A4 (Homo sapiens, UniProt P08684); assay: Drug metabolism assessed as human CYP3A4-mediated compound formation from 20 uM [14C]boceprevir after 120 mins by LC-MS/FSA method relative to total [14C]boceprevir; type: ADME; settings: recombinant enzyme, 2 h
Cytochrome P450 3A4, sequence (P08684 whole entry): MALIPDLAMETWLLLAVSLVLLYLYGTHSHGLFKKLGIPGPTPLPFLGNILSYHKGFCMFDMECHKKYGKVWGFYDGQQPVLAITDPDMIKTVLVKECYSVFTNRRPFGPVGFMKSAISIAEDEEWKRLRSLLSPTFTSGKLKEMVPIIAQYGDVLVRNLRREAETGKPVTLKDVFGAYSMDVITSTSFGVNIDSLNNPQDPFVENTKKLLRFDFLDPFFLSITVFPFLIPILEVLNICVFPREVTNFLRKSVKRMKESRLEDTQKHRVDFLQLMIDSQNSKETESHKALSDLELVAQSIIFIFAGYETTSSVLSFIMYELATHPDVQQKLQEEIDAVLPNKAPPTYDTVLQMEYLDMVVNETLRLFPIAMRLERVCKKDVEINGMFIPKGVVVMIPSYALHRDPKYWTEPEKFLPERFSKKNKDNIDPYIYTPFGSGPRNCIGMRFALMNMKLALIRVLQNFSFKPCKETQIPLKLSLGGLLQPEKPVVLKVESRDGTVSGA

Cytochrome P450 3A5 = Cytochrome P450 3A5 (Homo sapiens, UniProt P20815); assay: Drug metabolism assessed as human CYP3A5-mediated compound formation from 20 uM [14C]boceprevir after 120 mins by LC-MS/FSA method relative to total [14C]boceprevir; type: ADME; settings: recombinant enzyme, 2 h
Cytochrome P450 3A5, sequence (P20815 whole entry): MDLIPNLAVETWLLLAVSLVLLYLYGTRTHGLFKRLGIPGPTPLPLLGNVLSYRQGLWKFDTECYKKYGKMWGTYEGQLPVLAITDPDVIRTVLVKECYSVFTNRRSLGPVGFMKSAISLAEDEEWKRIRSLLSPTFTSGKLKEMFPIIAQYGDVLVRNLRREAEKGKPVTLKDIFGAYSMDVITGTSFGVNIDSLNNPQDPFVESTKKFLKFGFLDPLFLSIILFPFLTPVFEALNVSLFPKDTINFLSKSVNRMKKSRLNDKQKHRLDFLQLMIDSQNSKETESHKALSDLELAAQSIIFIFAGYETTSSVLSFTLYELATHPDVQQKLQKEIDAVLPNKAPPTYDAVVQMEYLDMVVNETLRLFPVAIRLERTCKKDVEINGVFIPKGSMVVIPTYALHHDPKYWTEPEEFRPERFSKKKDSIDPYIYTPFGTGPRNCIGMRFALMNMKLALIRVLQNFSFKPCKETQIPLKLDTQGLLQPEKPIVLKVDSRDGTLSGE

Liver cytosol [3] = assay: Drug metabolism in human liver cytosol treated with 20 uM [14C]boceprevir assessed as IC50 for AKR inhibitor diflunisal-mediated metabolite formation after 60 mins by LC-MS/MS/FSA method; type: ADME, tissue-based; settings: 1 h
Liver cytosol [4] = assay: Drug metabolism in human liver cytosol treated with 20 uM [14C]boceprevir assessed as IC50 for AKR inhibitor ibuprofen-mediated metabolite formation after 60 mins by LC-MS/MS/FSA method; type: ADME, tissue-based; settings: 1 h

In the case of CC(C)(C)NC(=O)N[C@H](C(=O)N1C[C@H]2[C@@H]([C@H]1C(=O)N[C@H](CC1CCC1)C(=O)C(N)=O)C2(C)C)C(C)(C)C, the Compound recovery (Cytochrome P450 2C19) is reported as 30.71%, the Compound recovery (Plasma) is reported as “>= 50%” and the Compound recovery (Liver cytosol [1]) is reported as “metabolite_not_detected”. For the same molecule, the Compound recovery (Cytochrome P450 2D6) was 31.66%, the Compound recovery (Cytochrome P450 2B6) was 33.77% and the Compound recovery (Cytochrome P450 1A1) was 33.4%. For the same molecule, the Compound recovery (Cytochrome P450 1A2) was 31.72%, the Compound recovery (Liver cytosol [2]) was “metabolite_not_detected” and the Compound recovery (Cytochrome P450 3A4) was 18.98%. The Compound recovery (Cytochrome P450 3A5) was 19.67%.

With CC(C)(C)NC(=O)N[C@H](C(=O)N1C[C@H]2[C@@H]([C@H]1C(=O)N[C@@H](CC1CCC1)[C@@H](O)C(N)=O)C2(C)C)C(C)(C)C the Compound recovery (Cytochrome P450 2C19) was 0.38%, the Compound recovery (Plasma) was “>= 50%” and the IC50 (Liver cytosol [3]) was 4.58 µM. For the same molecule, the Compound recovery (Cytochrome P450 2D6) was 0.56%, the IC50 (Liver cytosol [4]) was 412 µM and the Compound recovery (Cytochrome P450 2B6) was 0.9%. For the same molecule, the Compound recovery (Cytochrome P450 1A1) was 0.57%, the Compound recovery (Cytochrome P450 1A2) was 0.34% and the Compound recovery (Cytochrome P450 3A4; BLD = below limit of detection) was “BLD”. The Compound recovery (Cytochrome P450 3A5; BLD = below limit of detection) was “BLD”.

In the case of CC(C)(C)NC(=O)N[C@H](C(=O)N1C[C@H]2[C@@H]([C@H]1C(=O)NC(CC1CCC1)C(=O)C(N)=O)C2(C)C)C(C)(C)C (some centres undefined) [BOCEPREVIR], the IC50 (Liver cytosol [3]) is reported as 4.58 µM, the Compound recovery (Liver cytosol [1]) is reported as “metabolite_not_detected” and the IC50 (Liver cytosol [4]) is reported as 412 µM. The Compound recovery (Liver cytosol [2]) was “metabolite_not_detected”.
